Experimental findings from PMC12553813, “Converting Escherichia coli isochorismatase YecD into γ-lactamase” (Bioresources and Bioprocessing, 2025) are described below.

Molecules are shown by their SMILES.

Holding throughout (assay type): biochemical
Assay [1] concerns the target YecD (Escherichia coli, UniProt P0ADI7, V56A/G134C, form not given). The assay can be described thus: hydrolysis kinetics, chiral HPLC. The following applies: standard assay: 50 mM Tris-HCl pH 8.0, 35 °C, racemic γ-lactam.
Assay [2] has as its target YecD (Escherichia coli, UniProt P0ADI7, G134C, form not given). The assay can be described thus: hydrolysis kinetics, chiral HPLC. The following applies: standard assay: 50 mM Tris-HCl pH 8.0, 35 °C, racemic γ-lactam.
Assay [3] deals with YecD (Escherichia coli, UniProt P0ADI7, F23A/G134C, form not given). Description: hydrolysis kinetics, chiral HPLC. The following applies: standard assay: 50 mM Tris-HCl pH 8.0, 35 °C, racemic γ-lactam.
The target of assay [4] is YecD (Escherichia coli, UniProt P0ADI7, W104Y/G134C, form not given). Description: hydrolysis kinetics, chiral HPLC. Conditions: standard assay: 50 mM Tris-HCl pH 8.0, 35 °C, racemic γ-lactam.
In a further assay the target is T1, RutB (Escherichia coli, UniProt P75897).
T1 sequence (P75897 1-230): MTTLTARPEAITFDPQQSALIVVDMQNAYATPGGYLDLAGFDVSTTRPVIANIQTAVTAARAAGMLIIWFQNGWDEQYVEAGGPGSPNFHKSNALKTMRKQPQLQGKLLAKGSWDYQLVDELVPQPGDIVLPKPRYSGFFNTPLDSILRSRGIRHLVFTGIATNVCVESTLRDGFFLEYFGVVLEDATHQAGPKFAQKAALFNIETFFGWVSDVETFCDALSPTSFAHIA
Description: γ-lactamase activity screen, chiral HPLC. The following applies: 50 mM Tris-HCl pH 8.0, 35 °C, 4.6 mM racemic γ-lactam.

For assay [5], the target named is YecD (Escherichia coli, UniProt P0ADI7, W104A/G134C, form not given). Description: hydrolysis kinetics, chiral HPLC. Conditions: standard assay: 50 mM Tris-HCl pH 8.0, 35 °C, racemic γ-lactam.
Assay [6] deals with YecD (Escherichia coli, UniProt P0ADI7, V56I/W104E/G134C, form not given). The assay can be described thus: hydrolysis kinetics, chiral HPLC. The following applies: standard assay: 50 mM Tris-HCl pH 8.0, 35 °C, racemic γ-lactam.
Assay [7] deals with YecD (Escherichia coli, UniProt P0ADI7, W104F/G134C, form not given). The assay can be described thus: hydrolysis kinetics, chiral HPLC. Conditions: standard assay: 50 mM Tris-HCl pH 8.0, 35 °C, racemic γ-lactam.

A word on the Km: it is the substrate concentration at which the rate is half of its maximum.

Chain of YecD (Escherichia coli, UniProt P0ADI7, F23A/G134C, form not given) (P0ADI7 whole entry F23A/G134C, form open): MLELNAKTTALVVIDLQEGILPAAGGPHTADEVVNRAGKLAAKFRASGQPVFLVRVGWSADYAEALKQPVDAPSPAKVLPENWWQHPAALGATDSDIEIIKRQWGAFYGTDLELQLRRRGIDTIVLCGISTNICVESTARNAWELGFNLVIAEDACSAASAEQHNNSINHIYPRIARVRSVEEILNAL
Chain of YecD (Escherichia coli, UniProt P0ADI7, W104Y/G134C, form not given) (P0ADI7 whole entry W104Y/G134C, form open): as the sequence (P0ADI7 whole entry F23A/G134C, form open) above, with A23F, W104Y counted along it
Chain of YecD (Escherichia coli, UniProt P0ADI7, V56A/G134C, form not given) (P0ADI7 whole entry V56A/G134C, form open): as the sequence (P0ADI7 whole entry F23A/G134C, form open) above, with A23F, V56A counted along it
Chain of YecD (Escherichia coli, UniProt P0ADI7, W104F/G134C, form not given) (P0ADI7 whole entry W104F/G134C, form open): as the sequence (P0ADI7 whole entry F23A/G134C, form open) above, with A23F, W104F counted along it
Chain of YecD (Escherichia coli, UniProt P0ADI7, W104A/G134C, form not given) (P0ADI7 whole entry W104A/G134C, form open): as the sequence (P0ADI7 whole entry F23A/G134C, form open) above, with A23F, W104A counted along it
Chain of YecD (Escherichia coli, UniProt P0ADI7, G134C, form not given) (P0ADI7 whole entry G134C, form open): as the sequence (P0ADI7 whole entry F23A/G134C, form open) above, with A23F counted along it
Chain of YecD (Escherichia coli, UniProt P0ADI7, V56I/W104E/G134C, form not given) (P0ADI7 whole entry V56I/W104E/G134C, form open): as the sequence (P0ADI7 whole entry F23A/G134C, form open) above, with A23F, V56I, W104E counted along it

`O=C1N[C@@H]2C=C[C@H]1C2` (racemic) [( +) γ-lactam, 2-azabicyclo [2.2.1] hept-5-en-3-one]: the Michaelis-Menten constant (Km) was found to be 70 ± 3 mM on YecD [1]; 72 ± 4 mM on YecD [2]; 67 ± 4 mM on YecD [3]; 36 ± 3 mM at YecD [4]; 79 ± 3 mM at YecD [5]; 16 ± 2 mM on YecD [6]. In addition, at YecD [7], the Km came to 74 ± 3 mM. Also, the “γ-lactamase activity screen, chiral HPLC” value on RutB is “Screening for ( +) γ-lactamase activity revealed that only RutB exhibited this catalytic function”.
